Measured values from publication PMC12298351, “Novel 3,19-(N-Phenyl-3-(4-fluorophenyl)-pyrazole) Acetal of Andrographolide Promotes Cell Cycle Arrest and Apoptosis in MDA-MB-231 Breast Cancer Cells” (Pharmaceuticals, 2025).

Tests used:
MDA-MB-435 = details: MDA-MB-435, Melanoma
SK-MEL-5 = details: SK-MEL-5, Melanoma
PC-3 = details: PC-3, Prostate
SF-295 = details: SF-295, CNS
HCT-15 = details: HCT-15, Colon
MALME-3M = details: Melanoma
SNB-75 = details: SNB-75, CNS
SF-539 = details: SF-539, CNS
OVCAR-5 = details: OVCAR-5, Ovarian
SNB-19 = format: cell-based; details: SNB-19, CNS
HT29 = details: HT29, Colon
SK-MEL-2 = details: SK-MEL-2, Melanoma
OVCAR-4 = format: cell-based; details: OVCAR-4, Ovarian
COLO 205 = details: COLO 205, Colon
BT-549 = format: cell-based; details: BT-549, Breast
[1] = DPPH radical scavenging assay; details: 25 µM test compound, 0.1 mM DPPH, acetonitrile, 30 min
How it was run: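 Compounds at 25 µM in acetonitrile mixed 1:2 with 0.1 mM DPPH in acetonitrile, kept 30 min in the dark at room temperature. Absorbance read at 517 nm; % scavenging = (Ac − As)/Ac × 100, Ac being DPPH blank. Ascorbic acid positive control.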

MOLT-4 = details: MOLT-4, Leukemia
786-0 = details: 786-0, Renal
HCC-2998 = details: HCC-2998, Colon
HCT-116 = format: cell-based; details: HCT-116, Colon
[2] = read-out: 50% lethal concentration (LC50)
[3] = read-out: 50% lethal concentration (LC50), Breast

## C=C1CCC2C3(C)COC(c4cn(-c5ccccc5)nc4-c4cccc(Cl)c4)OC3CCC2(C)C1CC=C1C(=O)OCC1O (stereo not drawn) [1d]
MDA-MB-435
  GI50: 1.56 µM
  Total growth inhibition (TGI): 3.19 µM
MDA-MB-435; [2]
  CC50: 6.49 µM
SK-MEL-5
  GI50: 1.63 µM
  Total growth inhibition (TGI): 3 µM
SK-MEL-5; [2]
  CC50: 5.53 µM
PC-3
  GI50: 2.07 µM
PC-3; [2]
  CC50: > 100 µM
SF-295
  GI50: 1.42 µM
  Total growth inhibition (TGI): 2.75 µM
SF-295; [2]
  CC50: 5.36 µM
HCT-15
  GI50: 1.58 µM
  Total growth inhibition (TGI): 3.47 µM
HCT-15; [2]
  CC50: 7.64 µM
HOP-92; HOP-92, Non-Small Cell Lung
  Total growth inhibition (TGI): 3.11 µM
HOP-92; HOP-92, Non-Small-Cell Lung
  GI50: 1.56 µM
HOP-92; read-out: 50% lethal concentration (LC50), HOP-92, Non-Small Cell Lung
  CC50: 6.2 µM
MALME-3M
  GI50: 1.47 µM
  Total growth inhibition (TGI): 2.85 µM
SNB-75
  GI50: 1.12 µM
  Total growth inhibition (TGI): 3.14 µM
SNB-75; [2]
  CC50: 8.84 µM
SF-539
  GI50: 1.63 µM
  Total growth inhibition (TGI): 3.02 µM
SF-539; [2]
  CC50: 5.57 µM
HL-60(TB); Leukemia
  GI50: 1.38 µM
  Total growth inhibition (TGI): 4.97 µM
HL-60(TB); read-out: 50% lethal concentration (LC50), Leukemia
  CC50: > 100 µM
NCI-H522; NCI-H522, Non-Small Cell Lung
  Total growth inhibition (TGI): 2.95 µM
NCI-H522; NCI-H522, Non-Small-Cell Lung
  GI50: 1.54 µM
NCI-H522; read-out: 50% lethal concentration (LC50), NCI-H522, Non-Small Cell Lung
  CC50: 5.65 µM
NCI-H23; NCI-H23, Non-Small Cell Lung
  Total growth inhibition (TGI): 3.82 µM
NCI-H23; NCI-H23, Non-Small-Cell Lung
  GI50: 1.75 µM
NCI-H23; read-out: 50% lethal concentration (LC50), NCI-H23, Non-Small Cell Lung
  CC50: 8.31 µM
OVCAR-5
  GI50: 1.78 µM
  Total growth inhibition (TGI): 4.21 µM
OVCAR-5; [2]
  CC50: 7.73 µM
SNB-19
  GI50: 2.24 µM
  Total growth inhibition (TGI): 6.04 µM
SNB-19; [2]
  CC50: 54.8 µM
HT29
  GI50: 1.49 µM
  Total growth inhibition (TGI): 3.13 µM
HT29; [2]
  CC50: 6.57 µM
SK-MEL-2
  GI50: 1.57 µM
  Total growth inhibition (TGI): 3.05 µM
T-47D; Breast
  GI50: 1.63 µM
  Total growth inhibition (TGI): 4.76 µM
T-47D; [3]
  CC50: > 100 µM
OVCAR-4
  GI50: 2.09 µM
OVCAR-4; [2]
  CC50: > 100 µM
HS 578T; Breast
  GI50: 1.91 µM
  Total growth inhibition (TGI): 4.85 µM
HS 578T; [3]
  CC50: > 100 µM
MDA-MB-231; MDA-MB-231, Breast
  GI50: 1.49 µM
MDA-MB-231; MDA-MB-231/ATCC, Breast
  Total growth inhibition (TGI): 2.99 µM
MDA-MB-231; read-out: 50% lethal concentration (LC50), MDA-MB-231/ATCC, Breast
  CC50: 5.97 µM
COLO 205
  GI50: 1.98 µM
  Total growth inhibition (TGI): 4.24 µM
BT-549
  GI50: 1.57 µM
  Total growth inhibition (TGI): 3.63 µM
[1]
  % DPPH radical scavenging activity: 59.32%
NCI-H226; NCI-H226, Non-Small Cell Lung
  Total growth inhibition (TGI): 3.37 µM
NCI-H226; NCI-H226, Non-Small-Cell Lung
  GI50: 1.76 µM
NCI-H226; read-out: 50% lethal concentration (LC50), NCI-H226, Non-Small Cell Lung
  CC50: 6.46 µM
MOLT-4
  GI50: 1.14 µM
  Total growth inhibition (TGI): 3.82 µM
MOLT-4; [2]
  CC50: > 100 µM
786-0
  GI50: 2.31 µM
  Total growth inhibition (TGI): 6.1 µM
786-0; [2]
  CC50: 83.4 µM
HCC-2998
  GI50: 1.81 µM
  Total growth inhibition (TGI): 3.37 µM
HCT-116
  GI50: 1.04 µM
  Total growth inhibition (TGI): 3.48 µM
HCT-116; [2]
  CC50: 45.2 µM
